# Data from patent publication US20020137767A1, “Methods for treating addictive disorders” (priority 1999, published 2002).
# Where “and” joins values, the source holds several entries; their conditions need not be identical. Equal values may be shown once.
# How the values were obtained:
# [1] = tested on: locomotion induced by d-amphetamine sulphate; conditions: male CD rats, cited from earlier work
# [2] = tested on: D1-like receptors; conditions: po; male CD rats; cited from earlier work
# [3] = tested on: stereotypy induced by d-amphetamine sulphate; conditions: ip; d-amphetamine sulphate 10 mg/kg sc; male CD rats; cited from earlier work
# [4] = tested on: D1-receptors; conditions: po pretreatment; D2-mediated atypical jerking; male SD rats; cited from earlier work
# [5] = tested on: D2-like receptors; conditions: po; male CD rats; cited from earlier work
# [6] = tested on: 5-HT2 receptors; conditions: po; male CD rats; cited from earlier work
# [7] = tested on: catalepsy; conditions: ip; male CD rats; cited from earlier work
# [8] = tested on: food-maintained behavior; assay: Food-maintained responding, FR 30, food components (Example 3)
# [9] = tested on: discriminative stimulus effects of cocaine; assay: Cocaine drug discrimination, pretreatment protocol (Example 2); assay type: in vivo, rhesus monkeys (Macaca mulatta)
# Procedure: During the week, all food was delivered after the experimental session, whereas at weekends, food was delivered between 9 a.m. and noon. Water was freely available at all times.
# A computer, located in a separate room, controlled the operant panels and data collection.
# Discrimination Training: Discrimination training was conducted 5 days per week during daily sessions composed of multiple cycles. Each cycle consisted of a 15 min time-out period followed by a 5 min response period. During the time-out, all stimulus lights were off, and responding had no scheduled consequences. During the response period, the right and left response keys were transilluminated red or green, and monkeys could earn up to 10 food pellets by responding under a FR 30 schedule of food presentation. For one monkey, the left key was illuminated green and the right key was illuminated red; the colors of the response-keys were reversed for the other three monkeys. The center key was not illuminated at any time and responding on it had no scheduled consequences.
# On training days, monkeys were given either saline or 0.40 mg/kg cocaine, i.m., 10 min before the response period. Following the administration of saline, responding on only the green key (the saline-appropriate key) produced food, whereas following administration of 0.40 mg/kg cocaine, only responding on the red key (the drug-appropriate key) produced food. Responses on the inappropriate key reset the FR requirement on the appropriate key. Sessions consisted of 1 to 5 cycles and, if cocaine was administered, this occurred only during the last cycle. Thus, training days consisted of 0 to 5 saline cycles followed by 0 or 1 cocaine cycle.
# During each response period, 3 dependent variables were determined:
# 1) Percent injection-appropriate responding prior to delivery of the first reinforcer.
# 2) Percent injection-appropriate responding for the entire response period.
# Monkeys meeting the following criteria during the training day immediately proceeding the test day and in at least 6 of 7 consecutive training sessions before this, were used for discrimination testing:
# 1) the percent injection-appropriate responding prior to delivery of the first reinforcer was ≧80% for all cycles;
# 2) the percent injection-appropriate responding for the entire cycle was ≧90% for all cycles;
# 3) Response rates during saline training cycles were >0.5 responses per second.
# Discrimination Testing: Test sessions were identical to training sessions except that responding on either key produced food, and the test compound was administered using a Pretreatment Protocol. In this protocol, a cumulative dose-effect curve for cocaine (0.013-1.3 mg/kg) was determined either alone or following pretreatment with the test compound, which was administered 20 min before the first dose of cocaine.
# Mean data from saline and drug cycles during the training day immediately proceeding the initial test day served as the control data for the subsequent test day.
# [10] = tested on: cocaine self-administration; assay: Cocaine self-administration, FR 30, drug component (Example 3)
# [11] = i.m. 20 min before session, cocaine 0.003 mg/kg/inj, individual monkeys, hydrobromide
smiles,measurement,setting,value
"COc1cc2c(cc1O)C(C1(c3ccccc3Cl)CC1)N(C)CC2 (single isomer, unassigned; (+)) [BTS 73 947, (+)-1-[1-(2-chlorophenyl)cyclopropyl]-7-hydroxy-6-methoxy-2-methyl-1,2,3,4-tetrahydroisoquinoline]",duration of action,[1]; behavioral models,> 6 h
same,time of peak effect post-dose,[1]; behavioral models,4 h
same,ED50 to inhibit locomotion induced by d-amphetamine sulphate,"[1]; ip, d-amphetamine sulphate 2.5 mg/kg sc",0.7 mg/kg
same,fold greater potency against limbic DA function (locomotion vs stereotypy),"[1]; ratio of stereotypy and locomotion ED50, ip",~3.5 fold
same,ED50 for protection of D1-like receptors from EEDQ inactivation,[2],1 mg/kg
same,ED50 to inhibit stereotypy induced by d-amphetamine sulphate,[3],2.4 mg/kg
same,ED15 (dose induced 15 jerks in the 15 min test period),[4],3.4 mg/kg
same,protection of D2-like receptors from EEDQ inactivation,[5],no effect
same,protection of 5-HT2 receptors from EEDQ inactivation,[6],no effect
same,ED50 to induce catalepsy,[7],25.4 mg/kg
same,ratio of ED50 to induce catalepsy to ED50 to inhibit amphetamine locomotion,[7],36
"Br.COc1cc2c(cc1O)C(C1(c3ccccc3Cl)CC1)N(C)CC2 (single isomer, unassigned; (+)) [test compound, (+)-1-[1-(2-chlorophenyl)cyclopropyl]-7-hydroxy-6-methoxy-2-methyl-1,2,3,4tetrahydroisoquinoline hydrobromide]",ED50,"[8]; Macaca mulatta, read-out: ED50 for decreasing response rates maintained by food (Food #1, preceded the drug component), i.m. 20 min before session, cocaine 0.003 mg/kg/inj, individual monkeys",0.003 mg/kg
same,"ED50 for decreasing response rates maintained by food (Food #1, preceded the drug component)",[8]; [11],0.002 mg/kg
same,"ED50 for decreasing response rates maintained by food (Food #2, followed the drug component)",[8]; [11],0.011 mg/kg and 0.006 mg/kg and 0.002 mg/kg
same,effect on food-maintained response rates in the first component of food availability,[8]; pretreatment 0.01 mg/kg,appreciably decreased
same,effect on responding (response rate) during first one to three cycles,"[9]; 0.01 and 0.032 mg/kg, in combination with 0.013 and 0.04 mg/kg cocaine",eliminated responding
same,fold increase in the cocaine ED50 value,"[9]; pretreatment 0.01 mg/kg, monkey 2",3 fold
same,effect on the cocaine discrimination dose-effect curve,"[9]; pretreatment 0.01 mg/kg, the other three monkeys (1, 3, 4)",no effect
same,effect on the cocaine discrimination dose-effect curve,"[9]; pretreatment 0.032 mg/kg, all four monkeys",rightward shifts
same,ED50 for cocaine after pretreatment with test compound 0.01 mg/kg,"[9]; test compound 0.01 mg/kg 20 min before first cocaine dose, individual monkeys 1-4, hydrobromide",0.24 mg/kg and 0.23 mg/kg and 0.72 mg/kg
same,ED50 for cocaine after pretreatment with test compound 0.032 mg/kg,"[9]; test compound 0.032 mg/kg 20 min before first cocaine dose, individual monkeys 1-4, hydrobromide",0.72 mg/kg and 0.071 mg/kg
same,ED50 for decreasing response rates maintained by cocaine (Drug component),[10]; [11],0.002 mg/kg and 0.001 mg/kg and 0.004 mg/kg
same,rightward shift of the peak of the dose-effect function for cocaine self-administration,"[10]; lower pretreatment dose (0.003 mg/kg), on average",3 fold
same,surmountability of treatment effects by increased self-administration of higher unit doses of cocaine,"[10]; pretreatment 0.003 and 0.01 mg/kg, any monkey",not surmounted
"COC(=O)[C@H]1[C@@H](OC(=O)c2ccccc2)C[C@@H]2CC[C@H]1N2C.Cl [Cocaine, Cocaine hydrochloride, reference compound]",substitution for training stimulus (cocaine-appropriate responding),"[9]; cocaine alone 0.4 mg/kg (training dose), all monkeys",Complete substitution
same,effect on response rates,[9]; cocaine alone 1.3 mg/kg,decreased response rates
same,"ED50 for cocaine (50% cocaine-appropriate responding), Cocaine Alone","[9]; cumulative cocaine 0.013-1.3 mg/kg i.m., no pretreatment, individual monkeys 1-4",0.23 mg/kg
